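Briefly, cells in 96-well plates were exposed to five compound concentrations for 48 h, and endpoints were estimated by linear interpolation. The concentration for 50% growth inhibition is given as GI50.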 Active and inactive are the calls of the source. Rule as the data show it: active = GI50 up to about 1.1 µM and inactive = higher.
Tests used:
Assay in all cases: inhibition of tumour cell growth, NCI panel, 48 h
NCI-H226 = test system: NCI-H226
Malme-3M = test system: Malme-3M
SK-MEL-5 = test system: SK-MEL-5
EKVX = test system: EKVX
UACC-62 = test system: UACC-62
HOP-92 = test system: HOP-92
SR = test system: SR
A498 = test system: A498
SK-OV-3 = test system: SK-OV-3
NCI-H460 = test system: NCI-H460
SW-620 = test system: SW-620
786-0 = test system: 786-0
OVCAR-5 = test system: OVCAR-5
SN12C = test system: SN12C
CCRF-CEM = test system: CCRF-CEM
NCI-H23 = test system: NCI-H23
M14 = test system: M14
IGROV-1 = test system: IGROV-1
ACHN = test system: ACHN
T47D = test system: T47D

Measured: GI50

CC(=O)O[C@]1(C)CCC2C(C)C(=O)OC2C2C(C)[C@@H](O)CC21 (stereo partly specified)
inactive: NCI-H226 31.4 µM | Malme-3M > 100 µM | SK-MEL-5 32.1 µM | EKVX 67.5 µM | UACC-62 33.9 µM | HOP-92 26.4 µM | SR 3.56 µM | A498 19.8 µM | SK-OV-3 49.9 µM | NCI-H460 66.5 µM | SW-620 15.8 µM | 786-0 31.4 µM | OVCAR-5 29.8 µM | SN12C 35.6 µM | CCRF-CEM 23.8 µM | NCI-H23 36.6 µM | M14 20.8 µM | IGROV-1 40.7 µM | ACHN 29.3 µM

CCC(O)C1Cc2c(C)cc3c(c2O1)C(=O)c1ccccc1C3=O (stereo unspecified)
inactive: NCI-H226 46.8 µM | Malme-3M 34.6 µM | SK-MEL-5 44.7 µM | EKVX 62.4 µM | UACC-62 28.8 µM | HOP-92 29.4 µM | SR 33.5 µM | A498 18 µM | SK-OV-3 22.6 µM | NCI-H460 27.3 µM | SW-620 52 µM | 786-0 25.8 µM | OVCAR-5 72.3 µM | SN12C 35.3 µM | CCRF-CEM 31.3 µM | NCI-H23 33.3 µM | M14 40.1 µM | IGROV-1 31.5 µM | ACHN 27.8 µM

CCOC(=O)c1c(O)nc(O)c(CC)c1C
inactive: NCI-H226 > 100 µM | Malme-3M > 100 µM | SK-MEL-5 > 100 µM | EKVX > 100 µM | UACC-62 > 100 µM | HOP-92 > 100 µM | A498 > 100 µM | SK-OV-3 > 100 µM | NCI-H460 > 100 µM | SW-620 > 100 µM | 786-0 > 100 µM | OVCAR-5 > 100 µM | T47D > 100 µM | SN12C > 100 µM | CCRF-CEM > 100 µM | NCI-H23 > 100 µM | M14 > 100 µM | IGROV-1 > 100 µM | ACHN > 100 µM

CCCOC(=O)c1cc(C(=CCC[C@H]2CC[C@@]3(C)[C@@H](CC[C@@H]4[C@@H]3CC[C@]3(C)[C@@H](C(C)CCCC(C)C)CC[C@@H]43)C2)c2cc(Cl)c(O)c(C(=O)OCCC)c2)cc(Cl)c1O (stereo partly specified)
inactive: NCI-H226 > 50 µM | SK-MEL-5 > 50 µM | EKVX > 50 µM | UACC-62 > 50 µM | A498 > 50 µM | NCI-H460 > 50 µM | SW-620 > 50 µM | 786-0 > 50 µM | T47D > 50 µM | SN12C > 50 µM | CCRF-CEM > 50 µM | NCI-H23 > 50 µM | IGROV-1 > 50 µM

COc1ccccc1/C=C(\C#N)C(=O)c1ccccc1
inactive: NCI-H226 > 100 µM | Malme-3M > 100 µM | SK-MEL-5 > 100 µM | EKVX > 100 µM | UACC-62 > 100 µM | HOP-92 > 100 µM | SR > 100 µM | A498 > 100 µM | SK-OV-3 > 100 µM | NCI-H460 > 100 µM | SW-620 > 100 µM | 786-0 > 100 µM | OVCAR-5 > 100 µM | SN12C > 100 µM | CCRF-CEM > 100 µM | NCI-H23 > 100 µM | M14 > 100 µM | IGROV-1 > 100 µM | ACHN > 100 µM

CCOC(=O)c1oc2c(OC)cc(Cl)c3c2c1CCC3
inactive: NCI-H226 12.2 µM | Malme-3M > 100 µM | SK-MEL-5 > 100 µM | EKVX > 100 µM | UACC-62 > 100 µM | HOP-92 20.7 µM | SR > 100 µM | A498 69.8 µM | SK-OV-3 50.8 µM | NCI-H460 > 100 µM | SW-620 > 100 µM | 786-0 30.8 µM | OVCAR-5 > 100 µM | SN12C 64.7 µM | CCRF-CEM > 100 µM | NCI-H23 > 100 µM | M14 > 100 µM | IGROV-1 38.3 µM | ACHN 30.3 µM

N/N=C(/Cc1nc2ccc(C(=O)c3ccccc3)cc2nc1O)C(=O)Nc1ccc([N+](=O)[O-])cc1[N+](=O)[O-]
inactive: NCI-H226 > 10 µM | Malme-3M > 100 µM | SK-MEL-5 86.7 µM | EKVX > 100 µM | UACC-62 49 µM | HOP-92 > 10 µM | SR > 10 µM | A498 > 10 µM | SK-OV-3 55.7 µM | NCI-H460 > 10 µM | SW-620 > 100 µM | 786-0 71.9 µM | OVCAR-5 > 10 µM | SN12C > 10 µM | CCRF-CEM > 10 µM | NCI-H23 > 10 µM | M14 > 10 µM | IGROV-1 > 10 µM | ACHN > 10 µM

Cc1cc2ncn(C3CCCCO3)c2cc1C (stereo unspecified)
inactive: NCI-H226 > 100 µM | Malme-3M > 100 µM | SK-MEL-5 > 100 µM | EKVX > 100 µM | UACC-62 > 100 µM | HOP-92 > 100 µM | SK-OV-3 > 100 µM | SW-620 > 100 µM | 786-0 > 100 µM | OVCAR-5 > 100 µM | T47D > 100 µM | SN12C > 100 µM | CCRF-CEM > 100 µM | NCI-H23 50.2 µM | M14 > 100 µM | IGROV-1 > 100 µM | ACHN > 100 µM

CC(C)(O)C1CC[C@]2(C)[C@H]3CC[C@@H]4[C@@]5(C)CCCC(C)(C)[C@@H]5CC[C@@]4(C)[C@]3(C)CC[C@@H]12 (stereo partly specified)
inactive: Malme-3M > 100 µM | SK-MEL-5 > 100 µM | EKVX > 100 µM | UACC-62 > 100 µM | HOP-92 > 100 µM | A498 > 100 µM | SK-OV-3 > 100 µM | NCI-H460 > 100 µM | SW-620 > 100 µM | 786-0 > 100 µM | OVCAR-5 > 100 µM | T47D > 100 µM | SN12C > 100 µM | CCRF-CEM > 100 µM | NCI-H23 > 100 µM | M14 > 100 µM | IGROV-1 > 100 µM | ACHN > 100 µM

O=S(=O)(O)c1ccc(/N=N/c2ccc3c(S(=O)(=O)O)cccc3c2O)c2ccccc12
inactive: NCI-H226 > 100 µM | Malme-3M > 100 µM | SK-MEL-5 > 100 µM | EKVX > 100 µM | UACC-62 > 100 µM | HOP-92 > 100 µM | A498 > 100 µM | SK-OV-3 > 100 µM | SW-620 > 100 µM | 786-0 > 100 µM | OVCAR-5 > 100 µM | T47D > 100 µM | SN12C > 100 µM | NCI-H23 > 100 µM | M14 > 100 µM | IGROV-1 > 100 µM | ACHN > 100 µM

c1ccc2c(c1)SC1=C(SC(=C3SC4=C(S3)Sc3ccccc3S4)S1)S2
inactive: NCI-H226 > 100 µM | Malme-3M > 100 µM | SK-MEL-5 > 100 µM | EKVX > 100 µM | UACC-62 > 100 µM | HOP-92 > 100 µM | NCI-H460 > 100 µM | SW-620 > 100 µM | 786-0 91 µM | OVCAR-5 > 100 µM | T47D > 100 µM | SN12C > 100 µM | CCRF-CEM > 100 µM | NCI-H23 > 100 µM | M14 > 100 µM | IGROV-1 > 100 µM | ACHN > 100 µM

From ChEMBL document CHEMBL1201862, “PubChem BioAssay data set” (2004)
